Experimental data reported in patent US11419834B2, “Methods for treating diseases or infections caused by or associated with H. pylori using a halogenated salicylanilide” (Rhode Island Hospital, priority 2019, dated 2022).
In brackets after ≈: the same amount, converted by molar mass. Like-named read-outs stand apart in the source and are kept apart here.

How the values were obtained:
H. pylori bacteria = assay: Scanning electron microscopy of morphology; type: cell-based, Helicobacter pylori
H. pylori (strain 60190) [1] = assay: Checkerboard synergy assay (FICI); type: cell-based, Helicobacter pylori; settings: for FICI value Niclosamide: test compound in combination with niclosamide
Description: References to “synergy” of the halogenated salicylanilide with other therapeutic agents described herein refer to an activity which is greater than the sum of the individual agents used alone. The degree of antimicrobial synergy may be assessed by calculating the fractional inhibitory concentration index (FICI) using the checkerboard assay described in the Examples herein. For two agents A and B, the FICI is calculated as: FICI=MICA-B in combination/(MICA alone+MICB alone) Synergy occurs when the FICI is ≤0.5; partial synergy for 0.5≤FICI≤1.0; no interaction […]; and antagonism FICI >4.0.
Antibacterial synergy was tested using the checkerboard assay using the method described in Zheng Z et al. (Antimicrob. Agents Chemother. 2017 July; 61(7)).
Niclosamide was combined with antibiotics and proton pump inhibitors (PPIs). Cultures of H. pylori (strain 60190) were adjusted to OD600=0.06 and added to compound pairs that had been serially diluted in the same 96-well plates, vertically for one compound and horizontally for the other. Assays were carried out in triplicate as described in the antibacterial susceptibility assay described above. The combinatorial inhibitory concentration was indicated by the fractional inhibitory concentration index (FICI): FICI=MICA combination/MICA alone+MICB combination/MICB alone Paired combinations of compounds and their observed FICI are listed in Table 4. Synergistic activity, where the combined antibacterial effect of the 2 antimicrobial agents is more than the sum of their effects alone, is defined by FICI 0.5, antagonism by FICI >4.0 and ‘no interaction’ by FICI >0.5-4.0.

[2] = system: H. pylori reference strain 60190 (ATCC 49503); assay: Broth microdilution assay, MIC; type: cell-based; settings: Helicobacter pylori, ATCC49503, 72 h; H. pylori strain 60190; Müller-Hinton broth + 10% FBS, 3 days
H. Pylori 49503 = assay: Broth microdilution assay, MIC; type: cell-based; settings: Helicobacter pylori; strain H. Pylori 49503
[3] = system: H. pylori bacteria (strain 60190); assay: Multi-step mutation frequency (serial passage resistance study); type: cell-based, Helicobacter pylori; settings: for increase in MIC during continuous passage: passaged sequentially over 30 days
Description: To determine whether H. pylori can develop resistance against niclosamide, bacterial cells were suspended in MHB with 10% FBS at OD600=0.06 in the presence of serially diluted niclosamide and incubated, as described in the antibiotic susceptibility assays sub-section. The standard antibiotics amoxicillin and clarithromycin were used as controls. From the highest drug concentration allowing visible growth at sub-MIC concentration, aliquots were diluted (1:40) into fresh medium. These were used to inoculate the second set of serial drug dilutions as described by Dalhoff et al. (Clin Infect Ds. 2001 Mar. 15; 32 Suppl, 1:S16-22). After a 3-day incubation, H. pylori bacteria (strain 60190) were passaged sequentially over 30 days and the OD was recorded.

H. pylori strain 60190 = assay: Minimum bactericidal concentration (plating from MIC assay); type: cell-based, Helicobacter pylori
H. Pylori 43504 = assay: Broth microdilution assay, MIC; type: cell-based; settings: Helicobacter pylori; strain H. Pylori 43504
H. Pylori 51932 = assay: Broth microdilution assay, MIC; type: cell-based; settings: Helicobacter pylori; strain H. Pylori 51932
H. pylori (strain 60190) [4] = assay: Effect of pH on MIC (broth microdilution); type: cell-based, Helicobacter pylori; settings: pH 7.0 to 5.2
Description: The pH was adjusted to acidic condition with 1 N HCl. The minimal bactericidal concentration (MBC) was determined by plating 5 μL of broth culture from the MIC assay onto Müller-Hinton agar (BD Biosciences) supplemented with 10% FBS. After 72 h, the lowest concentration at which colonies were not observed was reported as the MBC.

[5] = system: AGS cells invaded by H. pylori; assay: Invasion, gentamicin protection assay; type: cell-based, Helicobacter pylori; settings: 0.1 μg/mL, 20 hours, AGS cells
Description: (§1) The AGS (Gastric adenocarcinoma cell lines) cell line was used to examine inhibition of adhesion and invasion of H. pylori (strain 60190) by niclosamide, as described by Schmitt et al. (Front Cell Infect Microbiol. 2013; 3:93). The AGS cells were grown in Dulbecco's Modified Eagle Medium (DMEM, ex. Gibco), supplemented with 10% fetal bovine serum (Gibco) and 1% penicillin/streptomycin (Gibco) and maintained at 37° C. in 5% C02. Then, 5×10^5 cells in antibiotic and serum-free DMEM were seeded in 6-well plates 24 hours prior to infection. H. pylori bacteria at a multiplicity of infection (MOI)=100 were added and allowed to adhere to the surface of the AGS cells. Planktonic bacteria were removed after 2 hours and DMEM with niclosamide (2×MIC) was then added to the wells containing the AGS. The mammalian cells were lysed by 0.1% saponin after 20 hours of incubation and the adhered bacteria were then serially diluted, plated in Brucella agar supplemented with 10% FBS, and incubated as described above. A control arm of DMSO and a comparator using amoxicillin at a concentration of 0.1 μg/mL (10×MIC) was also assessed. […]

[6] = system: H. pylori (strain 60190) adhered to AGS cells; assay: Adhesion of H. pylori to AGS cells; type: cell-based, Helicobacter pylori; settings: 0.1 μg/mL (10×MIC)
Description: as §1

[7] = system: IL-8 secretion from MKN-28 cells co-cultured with H. pylori; assay: IL-8 secretion, real-time RT-PCR; type: cell-based; settings: 10× MIC, H. pylori infected MKN-28 cells
Description: Real-Time (RT-PCR) was carried out to determine whether niclosamide has an inhibitory role in IL-8 secretion. MKN-28 cells were co-cultured with H. pylori (MOI=100) in the presence or absence of a test compound. At 24 hours, RNA was isolated from the infected host cells. cDNA was synthesized using the Verso cDNA (Invitrogen) synthesis kit according to manufacturer instructions. Quantitative real-time reactions were carried out in a Bio-Rad iTaq universal SYBR (Bio-Rad, Hercules, Calif. USA) one-step kit and a CFX98 real-time PCR cycler as described by Zheng et al. (Future Med. Chem. 2018, February; 10(3):283-296). The relative gene expression was calculated from Cq values using a ΔΔCq method.

[8] = Helicobacter pylori, H. pylori strain 60190, read-out: MBC

N#CC(C#N)=NNc1cccc(Cl)c1 [CCCP, carbonyl cyanide m-chlorophenylhydrazone]
morphology by SEM (H. pylori bacteria; 10 μM): morphological changes and decreased cell size

COc1ccc2[nH]c([S+]([O-])Cc3ncc(C)c(OC)c3C)nc2c1 (stereo not shown) [Omeprazole, omeprazole]
FICI value Niclosamide (H. pylori (strain 60190) [1]): 0.625

COc1ccnc(C[S+]([O-])c2nc3ccc(OC(F)F)cc3[nH]2)c1OC (stereo not shown) [Pantoprazole, pantoprazole]
FICI value Niclosamide (H. pylori (strain 60190) [1]): 0.75

CC[C@H]1OC(=O)[C@H](C)[C@@H](O[C@H]2C[C@@](C)(OC)[C@@H](O)[C@H](C)O2)[C@H](C)[C@@H](O[C@@H]2O[C@H](C)C[C@H](N(C)C)[C@H]2O)[C@](C)(OC)C[C@@H](C)C(=O)[C@H](C)[C@@H](O)[C@]1(C)O [Clarithromycin, clarithromycin]
MIC [2]: 0.0025 µg/mL
MIC (H. Pylori 49503): 0.0025 µg/mL (≈ 0.00334 µM)
change in MIC through at least 10 passages [3]: 2 fold
exposure time after which MIC increased ([3]; continuous exposure, 30 day study): > 24 days
increase in MIC during continuous passage [3]: 4 fold
MBC (H. pylori strain 60190; [8]): 0.25 µg/mL (≈ 0.334 µM)
MIC (H. Pylori 43504): 0.005 µg/mL (≈ 0.00668 µM)
MIC (H. Pylori 51932): 0.005 µg/mL (≈ 0.00668 µM)
FICI value Niclosamide (H. pylori (strain 60190) [1]): 1.0
change of MIC at acidic pH compared to pH 7.0 (H. pylori (strain 60190) [4]): increased

CC1(C)S[C@@H]2[C@H](NC(=O)[C@H](N)c3ccc(O)cc3)C(=O)N2[C@H]1C(=O)O [Amoxicillin, amoxicillin]
effect on intracellular bacteria [5]: eliminated bacteria completely
MIC [2]: 0.01 µg/mL
MIC (H. Pylori 49503): 0.01 µg/mL (≈ 0.0274 µM)
change in MIC through at least 10 passages [3]: 2 fold
increase in MIC during continuous passage [3]: 2 fold
morphology by SEM (H. pylori bacteria; 0.1 μg/mL (10×MIC)): morphological changes and decreased cell size
MBC (H. pylori strain 60190; [8]): 0.5 µg/mL (≈ 1.37 µM)
effect on bacterial adhesion [6]: eliminated bacterial adhesion completely
MIC (H. Pylori 43504): 0.03 µg/mL (≈ 0.0821 µM)
MIC (H. Pylori 51932): 0.01 µg/mL (≈ 0.0274 µM)
effect on IL-8 secretion [7]: inhibited IL-8 secretion
FICI value Niclosamide (H. pylori (strain 60190) [1]): 2.0
change of MIC at acidic pH compared to pH 7.0 (H. pylori (strain 60190) [4]): increased

O=C(Nc1cc(Cl)cc(Cl)c1O)c1c(O)c(Cl)cc(Cl)c1Cl [Oxyclozanide, oxyclozanide]
MIC [2]: 2 µg/mL
MBC (H. pylori strain 60190; [8]): 4 µg/mL (≈ 9.96 µM)

Cc1ncc([N+](=O)[O-])n1CCO [Metronidazole, metronidazole]
interaction with niclosamide (H. pylori (strain 60190) [1]; combination with niclosamide): partially synergistic
FICI value Niclosamide (H. pylori (strain 60190) [1]): 0.75

Cc1cc(C(C#N)c2ccc(Cl)cc2)c(Cl)cc1NC(=O)c1cc(I)cc(I)c1O (stereo not shown) [Closantel, closantel]
MIC [2]: 16 µg/mL
MBC (H. pylori strain 60190; H. pylori strain 60190): 16.0 µg/mL (≈ 24.1 µM)
MBC (H. pylori strain 60190; [8]): 16 µg/mL (≈ 24.1 µM)

O=C(Nc1ccc(Oc2ccc(Cl)cc2)c(Cl)c1)c1cc(I)cc(I)c1O [Rafoxanide, rafoxanide]
MBC (H. pylori strain 60190; Helicobacter pylori, 60190): 8 µg/mL (≈ 12.8 µM)
